Legend:
[1] = molecular target: T1, human bradykinin receptor 1 (B1R) (Homo sapiens, UniProt P46663); experiment: Functional study on the bradykinin receptor 1 (B1R), human: FLIPR Ca2+ influx assay; format: cell-based; conditions: test substance 10 μM, CHO K1 cells transfected with human B1R, Lys-Des-Arg9-bradykinin at EC80, Ca2+ influx (Fluo-4, FLIPR); for inhibition at 10 µM: read-out: B1R antagonism, human [10 μM] % inhibition
T1 construct: expressed in transfected cells; host or cells: CHO K1 cells
T1 sequence (P46663 1-353): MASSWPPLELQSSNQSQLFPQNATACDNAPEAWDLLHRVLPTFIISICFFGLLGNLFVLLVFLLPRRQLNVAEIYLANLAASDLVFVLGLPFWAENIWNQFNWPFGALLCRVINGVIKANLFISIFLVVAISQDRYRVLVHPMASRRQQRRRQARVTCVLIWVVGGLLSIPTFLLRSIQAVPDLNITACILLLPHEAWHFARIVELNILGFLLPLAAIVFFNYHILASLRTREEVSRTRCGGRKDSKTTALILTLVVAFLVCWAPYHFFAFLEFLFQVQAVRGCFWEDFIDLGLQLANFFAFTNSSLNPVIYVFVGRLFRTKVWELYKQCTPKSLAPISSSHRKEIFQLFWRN
Outline: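 CHO K1 cells stably expressing human B1R were loaded with Fluo-4, and Ca2+ fluorescence was read on FLIPR (ex 488/em 540 nm). Compound was added first (10 μM for % activation against Lys-Des-Arg9-bradykinin ≥0.5 nM). After 10-20 min, Lys-Des-Arg9-bradykinin was added at EC80 for % inhibition; IC50 came from concentration series, n=2-3, N≥2.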

[2] = molecular target: T2, bradykinin receptor 1 (B1R) of the rat (Rattus norvegicus, UniProt P97583); experiment: Functional study on the bradykinin receptor 1 (B1R), rat: FLIPR Ca2+ influx assay; format: cell-based; conditions: test substance 10 μM, CHO K1 cells transfected with rat B1R, Des-Arg9-bradykinin at EC80, Ca2+ influx (Fluo-4, FLIPR); for inhibition at 10 µM: read-out: B1R antagonism, rat [10 μM] % inhibition
T2 construct: expressed in transfected cells; host or cells: CHO K1 cells
T2 sequence (P97583 1-337): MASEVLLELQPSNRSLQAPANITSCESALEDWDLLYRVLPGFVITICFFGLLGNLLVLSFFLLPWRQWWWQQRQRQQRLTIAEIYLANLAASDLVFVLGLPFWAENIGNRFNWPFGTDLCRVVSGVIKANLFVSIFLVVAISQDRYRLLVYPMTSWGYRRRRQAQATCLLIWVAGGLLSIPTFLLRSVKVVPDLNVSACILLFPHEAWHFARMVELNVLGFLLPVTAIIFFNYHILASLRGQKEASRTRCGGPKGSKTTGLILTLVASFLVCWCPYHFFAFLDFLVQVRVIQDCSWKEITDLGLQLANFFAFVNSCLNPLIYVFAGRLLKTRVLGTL
Outline: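 CHO K1 cells stably expressing rat B1R, Fluo-4-loaded, read on FLIPR (ex 488/em 540 nm, peak fluorescence). Test substances added first (agonism vs 10 μM Des-Arg9-bradykinin), then after 10-20 min Des-Arg9-bradykinin at EC80; % inhibition and IC50 from concentration series, n=2-3, N≥2.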

human μ-opiate receptor = molecular target: T3, human μ-opiate receptor (Homo sapiens, UniProt P35372); experiment: Affinity for the human μ-opiate receptor ([3H]-naloxone displacement, SPA); conditions: test substance 1 μmol/l, inhibition of specific [3H]-naloxone binding, CHO-K1 receptor membrane preparation; for inhibition at 1 µM: read-out: μ-Opioid receptor [1 μM] % inhibition
T3 construct: purchased PerkinElmer Life Sciences, Zaventem, Belgium RB-HOM; host or cells: CHO-K1 cells (membrane preparation)
Outline: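 Membranes from CHO-K1 cells expressing human μ-opiate receptor were incubated 90 min at room temperature with 1 nmol/l [3H]-naloxone and WGA-SPA beads in 50 mmol/l Tris-HCl with 0.06% BSA; non-specific binding was defined with 100 μmol/l naloxone. Percent inhibition was measured at 1 μmol/l, IC50 was derived from concentration series, and Ki was obtained by Cheng-Prusoff.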

T3 sequence (P35372 whole entry): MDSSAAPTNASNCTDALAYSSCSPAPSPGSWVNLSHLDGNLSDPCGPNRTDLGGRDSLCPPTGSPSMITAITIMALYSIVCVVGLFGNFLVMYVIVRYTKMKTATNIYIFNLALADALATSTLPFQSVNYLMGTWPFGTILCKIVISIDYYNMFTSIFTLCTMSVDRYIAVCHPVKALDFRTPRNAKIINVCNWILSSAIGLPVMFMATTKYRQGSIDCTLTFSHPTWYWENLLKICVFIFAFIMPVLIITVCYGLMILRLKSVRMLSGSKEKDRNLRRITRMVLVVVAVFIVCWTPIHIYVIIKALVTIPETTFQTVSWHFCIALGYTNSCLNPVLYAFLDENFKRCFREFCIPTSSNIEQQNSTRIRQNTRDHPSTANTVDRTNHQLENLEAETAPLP

| Molecule | inhibition at 10 µM [1] | inhibition at 10 µM [2] | inhibition at 1 µM (human μ-opiate receptor) | B1R antagonism, human [10 μM] % inhibition [1] | B1R antagonism, rat [10 μM] % inhibition [2] | μ-Opioid receptor [1 μM] % inhibition (human μ-opiate receptor) |
| --- | --- | --- | --- | --- | --- | --- |
| CN(C)C(c1ccccc1)C1CCC(CNC(=O)CC2CCCCN2S(=O)(=O)c2cccc(C(F)(F)F)c2)CC1 (stereo not drawn) [Example 8, N—((4-((Dimethylamino)(phenyl)methyl)cyclohexyl)methyl)-2-(1-(3-(trifluoromethyl)phenylsulfonyl)piperidin-2-yl)acetamide] | 71.4% | 9% | 94% | – | – | – |
| O=C(CC1C(=O)Nc2ccccc2N1S(=O)(=O)c1ccc(Cl)c(Cl)c1)NC1CCC(C(c2ccccc2)N2CCOCC2)CC1 (stereo not drawn) [Example 54, 2-[1-(3,4-dichloro-benzenesulfonyl)-3-oxo-1,2,3,4-tetrahydro-quinoxalin-2-yl]-N-[4-(morpholin-4-yl-phenyl-methyl)-cyclohexyl]-acetamide] | 105% | 44% | 12% | – | – | – |
| 3-(1-(4-chloro-2,5-dimethylphenylsulfonyl)piperidin-2-yl)-1-(4-((4-methyl-piperazin-1-yl)(phenyl)methyl)piperidin-1-yl)propan-1-one [Example 122] | – | – | – | 98% | 40% | 47% |
| O=C(CC1C(=O)Nc2ccccc2N1S(=O)(=O)c1ccc(Cl)c(Cl)c1)NC1CCC(C(CCc2ccccc2)N2CCOCC2)CC1 (stereo not drawn) [Example 69, 2-[1-(3,4-dichloro-benzenesulfonyl)-3-oxo-1,2,3,4-tetrahydro-quinoxalin-2-yl]-N-[4-(1-morpholin-4-yl-3-phenyl-propyl)-cyclohexyl]-acetamide] | 105% | 19% | 7% | – | – | – |
| O=C(CC1CCCCN1S(=O)(=O)c1ccc(Cl)c(Cl)c1)NCC1CCC(C(c2ccccc2)N2CCCC2)CC1 (stereo not drawn) [Example 85, 2-[1-(3,4-dichloro-benzenesulfonyl)-piperidin-2-yl]-N-[4-(phenyl-pyrrolidin-1-ylmethyl)-cyclohexylmethyl]-acetamide] | 92.7% | 22% | 95% | – | – | – |
| O=C(CC1CCCN1S(=O)(=O)c1ccc(Cl)c(Cl)c1)NC1CCC(C(c2ccccc2)N2CCOCC2)CC1 (stereo not drawn) [Example 104, 2-(1-(3,4-dichlorophenylsulfonyl)pyrrolidin-2-yl)-N-(4-(morpholino(phenyl)methyl)cyclohexyl)acetamide] | 32.8% | 13% | 11% | – | – | – |
| CN(CCCCC(=O)NC1CCC(C(c2ccccc2)N2CCCCC2)CC1)S(=O)(=O)c1c(Cl)cc(Cl)cc1Cl (stereo not drawn) [Example 6, N—(4-(Phenyl(piperidin-1-yl)methyl)cyclohexyl)-5-(2,4,6-trichloro-N-methylphenylsulfonamido)pentanamide] | 75.1% | 41% | 29% | – | – | – |
| O=C1Nc2ccccc2N(S(=O)(=O)c2ccc(Cl)c(Cl)c2)C1CC(=O)N1CCC(C(Cc2ccccc2)N2CCOCC2)CC1 (stereo not drawn) [Example 72, 4-(3,4-dichlorophenylsulfonyl)-3-(2-(4-(1-morpholino-2-phenylethyl)piperidin-1-yl)-2-oxoethyl)-3,4-dihydroquinoxalin-2(1H)-one] | 102% | 30% | 26% | – | – | – |
| O=C(CC1CCCN1S(=O)(=O)c1ccc(Cl)c(Cl)c1)NCC1CCC(C(c2ccccc2)N2CCOCC2)CC1 (stereo not drawn) [Example 73, 2-[1-(3,4-dichloro-benzenesulfonyl)-pyrrolidin-2-yl]-N-[4-(morpholin-4-yl-phenyl-methyl)-cyclohexylmethyl]-acetamide] | 76.3% | 36% | 17% | – | – | – |
| O=C1NCCN(S(=O)(=O)c2ccc(Cl)cc2Cl)C1CC(=O)N1CCCCC1C(Cc1ccccc1)N1CCOCC1 (stereo not drawn) [Example 63, 4-(2,4-dichlorophenylsulfonyl)-3-(2-(2-(1-morpholino-2-phenylethyl)piperidin-1-yl)-2-oxoethyl)piperazin-2-one] | 28.6% | -3% | 47% | – | – | – |
| O=C(CC1C(=O)Nc2ccccc2N1S(=O)(=O)c1ccc(Cl)c(Cl)c1)NC1CCC(C(CCc2ccccc2)N2CCCCC2)CC1 (stereo not drawn) [Example 68, 2-[1-(3,4-dichloro-benzenesulfonyl)-3-oxo-1,2,3,4-tetrahydro-quinoxalin-2-yl]-N-[4-(3-phenyl-1-piperidin-1-yl-propyl)-cyclohexyl]-acetamide] | 104% | 37% | 30% | – | – | – |
| O=C(CC1CCCN1S(=O)(=O)c1ccc(Cl)c(Cl)c1)NC1CCC(C(c2ccccc2)N2CCCC2)CC1 (stereo not drawn) [Example 105, 2-(1-(3,4-dichlorophenylsulfonyl)pyrrolidin-2-yl)-N-(4-(phenyl(pyrrolidin-1-yl)methyl)cyclohexyl)acetamide] | 99.5% | 24% | 76% | – | – | – |
| O=C(CC1C(=O)NCCN1S(=O)(=O)c1ccc(Cl)cc1Cl)NCC1CCC(C(CCc2ccccc2)N2CCOCC2)CC1 (stereo not drawn) [Example 56, 2-[1-(2,4-dichloro-benzenesulfonyl)-3-oxo-piperazin-2-yl]-N-[4-(1-morpholin-4-yl-3-phenyl-propyl)-cyclohexylmethyl]-acetamide] | 104% | 20% | 11% | – | – | – |
| O=C(CC1CCCCN1S(=O)(=O)c1ccc(Cl)c(Cl)c1)NC1CCC(C(c2ccccc2)N2CCCC2)CC1 (stereo not drawn) [Example 107, 2-(1-(3,4-dichlorophenylsulfonyl)piperidin-2-yl)-N-(4-(phenyl(pyrrolidin-1-yl)methyl)cyclohexyl)acetamide] | 102% | 26% | 78% | – | – | – |
| O=C(CC1CCCN1S(=O)(=O)c1ccc(Cl)c(Cl)c1)NC1CCC(C(CCc2ccccc2)N2CCOCC2)CC1 (stereo not drawn) [Example 78, 2-(1-(3,4-dichlorophenylsulfonyl)pyrrolidin-2-yl)-N-(4-(1-morpholino-3-phenylpropyl)cyclohexyl)acetamide] | 78.3% | 10% | 18% | – | – | – |
| O=C(CC1CCCCN1S(=O)(=O)c1ccc(Cl)c(Cl)c1)NCC1CCC(C(c2ccccc2)N2CCOCC2)CC1 (stereo not drawn) [Example 82, 2-[1-(3,4-dichloro-benzenesulfonyl)-piperidin-2-yl]-N-[4-(morpholin-4-yl-phenylmethyl)-cyclohexylmethyl]-acetamide] | 23.5% | 7% | 23% | – | – | – |
| 1-(4-(1-(4-methylpiperazin-1-yl)-3-phenylpropyl)piperidin-1-yl)-2-(1-(3-(trifluoromethyl)phenylsulfonyl)piperidin-2-yl)ethanone [Example 112] | – | – | – | 90% | 61% | 28% |
